Reference: publication PMC9421656, “Beyond Retigabine: Design, Synthesis, and Pharmacological Characterization of a Potent and Chemically Stable Neuronal Kv7 Channel Activator with Anticonvulsant Activity” (Journal of Medicinal Chemistry, 2022)
Where “and” joins values, the source holds several entries; their conditions need not be identical. Identical values can stand only once. Entries after “also recorded” stand apart in the source; their conditions may differ.

What was measured:
PTZ-induced seizures = assay: Pentylenetetrazol (PTZ)-induced acute seizures in mice; format: in vivo, C57Bl/6 mice; conditions: for Latency to maximal seizures: 30 min before PTZ; for Minimum effective dose: i.p., PTZ model; for Seizure score (Lüttjohann's scale): 30 min before PTZ 100 mg/kg s.c.; for Survival rate in PTZ seizure model: end of 60 min observation
Experimental: A subcutaneous (s.c.) injection of 100 mg/kg PTZ in mice is able to trigger convulsive behavior whose intensity can be assessed and quantified according to the revised Lüttjohann’s scale (see Materials and Methods),[40] using a 9-point severity score ranging from 0 (whisker trembling) to 8 (wild jumping). For each animal, the maximal severity score (Figure 5A) and the time latency required to reach such values (Figure 5B) were recorded.
Food and water were available ad libitum. Animals were experimentally naive and were used only once.
Thus, each dose was dissolved to allow injection of 0.01 mL/g, i.p. The control group was represented by mice injected only with vehicle solution (saline containing 2% Tween-20 and 2% PEG-400).
PTZ was injected, and animals were placed in clear Plexiglass boxes for observation of seizure activity. The severity of convulsions (from minimal “clonic” to maximal “generalized tonic–clonic”) as well as the latency to onset of maximal seizure was recorded.
0 = whisker trembling, 1 = sudden behavioral arrest, 2 = facial jerking, 3 = neck jerks, 4 = clonic seizures (sitting), 5 = tonic clonic seizures (lying on belly), 6 = clonic seizures (lying on side), 7 = tonic clonic seizures (lying on side), 8 = wild jumping. The behavioral assessments described above were performed in a blind manner and the observers had to reach a unanimous agreement regarding the scoring of the behavior.
The number of animals needed for the experiment was determined using the power analysis software GPower version 3.1.92. The required minimum sample size was 8 mice per group. Statistical analyses were performed using GraphPad Prism (GraphPad Software, LaJolla, CA) using a one-way analysis of variance with the Tukey post-hoc test. The P value of <0.05 was accepted as indicative of a statistically significant difference.

in vivo [1] = conditions: Sprague-Dawley, rat, ip, 0.3 mg/kg
Experimental: The drug half-lives were calculated using GraphPad Prism 8.0.2 (GraphPad Software, LaJolla, CA).
Returning to 40% B in 0.10 min. The flow rate was set at 0.5 mL/min. The column oven was set at 45 °C, and 5 μL of extract was injected. All additives and mobile phases were LCMS-grade and purchased from Merck (Milan, Italy).
The ESI was operated in positive mode. […] Interface temperature, desolvation line temperature, and heat block temperature were set, respectively, to 250, 250, and 350 °C. Nebulizing, drying (N2), and heating gas (air) were set, respectively, to 3, 10, and 10 L/min.

in vivo [2] = assay: in vivo
Experimental: The animals were sacrificed after 60 min, and brain and blood were collected.
For the assessment of plasmatic concentration, 20 μL of plasma was treated with 100 μL of methanol in a test tube. The tube was vortexed for 30 s. Then, the sample was centrifuged for 10 min at 14680 rpm, at 4 °C. 90 μL of supernatant was dried under nitrogen, reconstituted in 150 μL of MeOH, and then injected into the UHPLC–MS/MS.
Frozen brain tissues were lyophilized overnight, then weighed, carefully homogenized, and extracted with methanol in a 10 mg:[…] tissue:solvent ratio. The samples were vortexed for 30 s, treated in an ultrasonic bath for 5 min, and then centrifuged for 10 min at 14680 rpm, at 4 °C.
Returning to 40% B in 0.10 min.
The ESI was operated in positive mode.

Kv7.2/Kv7.3 channels = Kv7.2/Kv7.3 channels (Homo sapiens, UniProt O43525+O43526); assay: FluxOR thallium-sensitive fluorescence-based assay in CHO cells stably expressing Kv7.2 + Kv7.3; format: cell-based; set-up: expressed in transfected cells; conditions: for Slope of the fluorescent signal at 10 μM: initial slope of FluxOR signal between 5 and 15 s, mean ± SEM; for EC50: FluxOR dose-response, slope parameter, read-out: EC50 (initial slope of the fluorescence signal)
[3] = 3 mg/kg i.p., listed as Retigabine

CC(C)(C)CC(=O)Nc1ccc(NCc2ccc(C(F)(F)F)cc2)c(F)c1N [compound 60, N-(2-Amino-3-fluoro-4-((4-(trifluoromethyl)benzyl)amino)phenyl)-3,3-dimethylbutanamide]
Latency to maximal seizures (PTZ-induced seizures; 0.3 mg/kg i.p.): 1159.7 ± 169.4 s and 1159.7±169.4 (at 0.3 mg/Kg) s
Animals surviving in PTZ seizure model (PTZ-induced seizures; 1 mg/kg i.p., surviving/treated animals): 8/8
Survival rate in PTZ seizure model after XE991 pretreatment (PTZ-induced seizures; compound 60 with XE991 3 mg/kg i.p. pretreatment): 75%
Minimum effective dose (PTZ-induced seizures): 0.3 mg/kg
concentration at 0.5 h (in vivo [1]): 9 ng/mL
concentration at 2 h (in vivo [1]): 8.7 ng/mL
concentration at 4 h (in vivo [1]): 6.8 ng/mL
concentration at 8 h (in vivo [1]): 5.4 ng/mL
concentration at 24 h (in vivo [1]): 0 ng/mL
half-life (in vivo [1]): 16.9 h
Kp at 1 h (in vivo [2]; male, C57Bl/6, mouse, in vivo, ip, 1 mg/kg): 40.4
concentration at 60 min (in vivo [2]; male, C57Bl/6, mouse, in vivo, ip, 1 mg/kg, Brain concentration): 727000 ± 179000 ng/g
concentration at 60 min (in vivo [2]; male, C57Bl/6, mouse, in vivo, ip, 1 mg/kg, Plasma concentration): 18200 ± 3700 ng/g
Brain/plasma ratio higher than that of retigabine (in vivo [2]; mice, 1 mg/kg i.p., 60 min): 18 times
Kv7 opening activity (in words) (Kv7.2/Kv7.3 channels; 10 μM, compared with retigabine or the reference compound of the subseries): enhanced; also recorded: higher than that of retigabine
Slope of the fluorescent signal at 10 μM (Kv7.2/Kv7.3 channels; 10 μM): 0.0594±0.0026
EC50 (Kv7.2/Kv7.3 channels): 3.2 ± 1.7 µM

CCOC(=O)Nc1ccc(NCc2ccc(F)cc2)cc1N [RET, retigabine]
Seizure score (Lüttjohann's scale) (PTZ-induced seizures; 1 mg/kg i.p.): 6.9 ± 0.3
Latency to maximal seizures (PTZ-induced seizures; 3 mg/kg i.p.): 1041.4±223.2 (at 3 mg/Kg) s
Seizure score (Lüttjohann's scale) (PTZ-induced seizures; 3 mg/kg i.p.): 7.3±0.3 (at 3 mg/Kg)
Seizure score (Lüttjohann's scale) (PTZ-induced seizures; [3]): 7.3 ± 0.3
Latency to maximal seizures (PTZ-induced seizures; [3]): 1041.4 ± 223.2 s
Survival rate in PTZ seizure model (PTZ-induced seizures; 3 mg/kg i.p.): 40% (at 3 mg/Kg)
Survival rate in PTZ seizure model (PTZ-induced seizures; 3 mg/kg i.p., listed as retigabine): 40%
Minimum effective dose (PTZ-induced seizures): 3 mg/kg
Slope of the fluorescent signal at 10 μM (Kv7.2/Kv7.3 channels; 10 μM): 0.0270±0.0052
EC50 (Kv7.2/Kv7.3 channels): 11.2 ± 1.6 µM
